{"source": "patent US7097977B1", "about": "“Target of anticancer agent” (priority 2000, dated 2006)", "test_system": "rad51c, rad51d, xrcc2 and xrcc3 mutant DT40 cells", "assay": "colony survival assay on methyl cellulose containing cisplatin", "assay_type": "cell-based, avian", "settings": "continuous cisplatin in methyl cellulose plate; each mutant vs normal cells", "protocol": "Further, the cells were plated on a plate of methyl cellulose containing cisplatin (manufactured by NIPPON KAYAKU CO., LTD.), and cultured in an atmosphere of 5% CO2 and 20% O2, at humidity of 100%, and 39° C. Thereafter, the colony survival assay was carried out, thereby evaluating sensitivity of the cells to cisplatin.\nHowever, as shown in the panel (B) of FIG. 3, each mutant was about 8-fold more sensitive than normal cells to killing by cisplatin (cis-diamminedichloroplatinum-II), a DNA cross-linking agent that has been widely used in chemotherapy. The complementation of these mutants with human cDNAs corresponding to mutant genes in these mutants restored their cisplatin sensitivity to nearly normal levels.", "data": [{"smiles": "N.N.[Cl][Pt][Cl]", "note": "[cisplatin, cis-diamminedichloroplatinum-II]", "values": [{"measurement": "sensitivity of each mutant to killing relative to normal cells", "value": "about 8 fold"}]}]}
